In experiment [1] the target is Metabotropic glutamate receptor 5 (Rattus norvegicus, UniProt P31424). The experiment can be described thus: Antagonist activity at rat mGluR5 expressed in human HEK293A cells assessed as inhibition of glutamate-induced calcium flux. In kind it is functional, cell-based, HEK293-A.
Experiment [2] addresses Metabotropic glutamate receptor 5 (Rattus norvegicus) (UniProt P31424). The experiment can be described thus: Antagonist activity at rat mGluR5 expressed in human HEK293A cells assessed as inhibition of glutamate-induced calcium flux relative to glutamate. In kind it is functional, cell-based. Particulars: HEK293-A.
The target in experiment [3] is Metabotropic glutamate receptor 5 (Homo sapiens, UniProt P41594). Put plainly: Antagonist activity at mGluR5. In kind it is functional.
Metabotropic glutamate receptor 5 (Homo sapiens, UniProt P41594), sequence (P41594 whole entry): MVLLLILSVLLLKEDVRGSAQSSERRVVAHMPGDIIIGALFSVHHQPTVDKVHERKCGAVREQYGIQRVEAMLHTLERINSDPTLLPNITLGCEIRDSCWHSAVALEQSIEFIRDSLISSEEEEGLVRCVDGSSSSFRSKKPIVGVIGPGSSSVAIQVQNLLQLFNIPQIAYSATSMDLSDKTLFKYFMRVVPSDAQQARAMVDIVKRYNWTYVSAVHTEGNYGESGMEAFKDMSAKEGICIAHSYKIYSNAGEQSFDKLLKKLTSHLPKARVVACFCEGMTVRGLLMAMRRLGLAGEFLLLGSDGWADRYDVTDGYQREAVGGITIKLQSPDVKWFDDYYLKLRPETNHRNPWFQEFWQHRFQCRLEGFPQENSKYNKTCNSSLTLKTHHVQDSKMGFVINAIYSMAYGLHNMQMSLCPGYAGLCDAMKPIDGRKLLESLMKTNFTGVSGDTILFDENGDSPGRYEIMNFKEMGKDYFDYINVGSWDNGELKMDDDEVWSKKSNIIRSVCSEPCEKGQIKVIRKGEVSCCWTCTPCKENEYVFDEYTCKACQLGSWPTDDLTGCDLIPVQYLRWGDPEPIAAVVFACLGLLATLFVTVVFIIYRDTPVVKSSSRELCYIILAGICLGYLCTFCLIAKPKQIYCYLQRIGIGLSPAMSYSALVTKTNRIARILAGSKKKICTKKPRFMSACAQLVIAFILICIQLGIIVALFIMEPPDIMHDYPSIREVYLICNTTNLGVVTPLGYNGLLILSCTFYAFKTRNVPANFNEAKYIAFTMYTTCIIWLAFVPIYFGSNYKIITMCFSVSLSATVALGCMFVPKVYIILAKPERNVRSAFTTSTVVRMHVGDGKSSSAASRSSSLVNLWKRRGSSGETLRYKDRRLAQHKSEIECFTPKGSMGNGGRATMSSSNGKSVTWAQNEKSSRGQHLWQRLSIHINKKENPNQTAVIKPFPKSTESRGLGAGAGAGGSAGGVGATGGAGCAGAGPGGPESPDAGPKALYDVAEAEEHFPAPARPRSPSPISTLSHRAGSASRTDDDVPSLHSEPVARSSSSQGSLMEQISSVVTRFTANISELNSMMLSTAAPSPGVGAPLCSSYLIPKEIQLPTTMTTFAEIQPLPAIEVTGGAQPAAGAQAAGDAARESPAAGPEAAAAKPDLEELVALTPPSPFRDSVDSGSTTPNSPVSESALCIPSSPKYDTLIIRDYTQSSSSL

Metabotropic glutamate receptor 5 (Rattus norvegicus, UniProt P31424), sequence (P31424 whole entry): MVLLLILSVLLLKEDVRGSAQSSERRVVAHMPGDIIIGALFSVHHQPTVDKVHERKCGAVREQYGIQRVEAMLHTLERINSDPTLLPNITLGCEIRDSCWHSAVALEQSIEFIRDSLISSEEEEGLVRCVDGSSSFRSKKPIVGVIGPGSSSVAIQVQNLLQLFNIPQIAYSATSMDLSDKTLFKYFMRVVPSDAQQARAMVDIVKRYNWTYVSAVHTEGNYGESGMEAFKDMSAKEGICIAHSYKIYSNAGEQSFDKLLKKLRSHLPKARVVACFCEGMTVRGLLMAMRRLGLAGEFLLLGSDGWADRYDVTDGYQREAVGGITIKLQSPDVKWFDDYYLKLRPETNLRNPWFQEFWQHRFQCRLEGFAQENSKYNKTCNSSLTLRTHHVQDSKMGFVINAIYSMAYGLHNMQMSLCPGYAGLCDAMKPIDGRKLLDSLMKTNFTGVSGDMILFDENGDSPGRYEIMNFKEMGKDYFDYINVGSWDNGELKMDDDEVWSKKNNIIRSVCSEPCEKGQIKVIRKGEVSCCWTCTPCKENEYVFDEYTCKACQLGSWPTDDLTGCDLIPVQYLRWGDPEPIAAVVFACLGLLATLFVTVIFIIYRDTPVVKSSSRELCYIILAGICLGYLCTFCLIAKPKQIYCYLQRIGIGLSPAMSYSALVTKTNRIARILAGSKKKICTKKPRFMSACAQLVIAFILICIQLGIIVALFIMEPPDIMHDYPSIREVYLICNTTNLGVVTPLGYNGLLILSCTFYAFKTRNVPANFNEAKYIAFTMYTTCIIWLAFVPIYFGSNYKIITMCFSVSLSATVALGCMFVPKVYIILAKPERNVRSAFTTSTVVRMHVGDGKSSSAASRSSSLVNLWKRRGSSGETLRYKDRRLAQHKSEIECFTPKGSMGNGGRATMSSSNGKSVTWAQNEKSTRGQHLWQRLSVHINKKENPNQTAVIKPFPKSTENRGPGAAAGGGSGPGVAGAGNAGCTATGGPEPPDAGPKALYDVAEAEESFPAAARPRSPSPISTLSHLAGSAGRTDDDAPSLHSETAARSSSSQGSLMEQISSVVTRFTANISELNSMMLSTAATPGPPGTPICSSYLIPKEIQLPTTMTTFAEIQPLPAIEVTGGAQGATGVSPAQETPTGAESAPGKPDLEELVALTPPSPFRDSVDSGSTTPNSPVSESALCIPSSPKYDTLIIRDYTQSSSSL
Metabotropic glutamate receptor 5 (Rattus norvegicus), sequence (P31424 21-1203 limits assumed): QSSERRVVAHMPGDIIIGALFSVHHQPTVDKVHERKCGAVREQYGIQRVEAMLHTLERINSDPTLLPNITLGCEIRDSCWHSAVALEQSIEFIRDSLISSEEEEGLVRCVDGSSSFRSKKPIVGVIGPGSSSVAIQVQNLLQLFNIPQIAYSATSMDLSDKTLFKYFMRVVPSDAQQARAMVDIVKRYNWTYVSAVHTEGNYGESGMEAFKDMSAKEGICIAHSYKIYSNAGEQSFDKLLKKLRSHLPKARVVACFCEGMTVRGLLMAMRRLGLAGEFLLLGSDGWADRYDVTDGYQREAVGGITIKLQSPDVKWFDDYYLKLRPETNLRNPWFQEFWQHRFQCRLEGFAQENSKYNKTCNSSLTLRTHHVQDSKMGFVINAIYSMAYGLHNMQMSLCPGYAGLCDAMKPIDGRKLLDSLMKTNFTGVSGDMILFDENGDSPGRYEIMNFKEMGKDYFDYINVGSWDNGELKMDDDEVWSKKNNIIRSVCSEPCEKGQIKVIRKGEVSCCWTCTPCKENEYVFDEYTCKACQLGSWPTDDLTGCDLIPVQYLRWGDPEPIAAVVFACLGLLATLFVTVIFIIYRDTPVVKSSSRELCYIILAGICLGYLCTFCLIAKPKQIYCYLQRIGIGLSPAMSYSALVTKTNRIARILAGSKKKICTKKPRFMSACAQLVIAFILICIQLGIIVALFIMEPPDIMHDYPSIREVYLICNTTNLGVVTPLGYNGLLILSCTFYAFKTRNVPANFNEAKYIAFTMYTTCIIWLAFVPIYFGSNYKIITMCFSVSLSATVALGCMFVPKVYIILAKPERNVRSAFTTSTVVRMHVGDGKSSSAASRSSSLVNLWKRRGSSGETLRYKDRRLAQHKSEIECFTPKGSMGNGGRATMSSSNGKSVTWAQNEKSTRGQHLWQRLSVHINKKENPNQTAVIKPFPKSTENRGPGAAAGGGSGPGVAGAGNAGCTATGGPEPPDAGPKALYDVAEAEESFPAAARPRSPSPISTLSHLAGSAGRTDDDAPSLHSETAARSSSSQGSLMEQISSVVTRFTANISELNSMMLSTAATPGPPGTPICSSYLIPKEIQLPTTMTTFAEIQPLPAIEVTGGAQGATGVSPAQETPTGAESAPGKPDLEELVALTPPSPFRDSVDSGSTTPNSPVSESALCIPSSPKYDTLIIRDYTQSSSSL

As to `COc1ccccc1C(=O)Nc1cccc(NC(=O)C2CCCCC2)c1`, the IC50 in experiment [1] was over 30 µM.
In the case of `COc1ccccc1C(=O)Nc1cccc(NC(=O)C23CC4CC(CC(C4)C2)C3)c1`, in experiment [1], the IC50 is over 30 µM.
In the case of `O=C(Nc1cccnc1)c1cccc(N2C(=O)c3ccccc3C2=O)c1`, in experiment [1], the IC50 is over 30 µM. Further, in experiment [2], the % Glu Max came out at 86%.
Turning to `O=C(Nc1cccc(NC(=O)c2cccc(Cl)c2)c1)c1ccc(Cl)cc1`, the IC50 in experiment [1] was over 30 µM.
Take `O=C(NC1CC2CCC1C2)c1cccc(N2C(=O)c3ccccc3C2=O)c1` (stereo not drawn): in experiment [1], the IC50 is over 30 µM. For the same molecule, in experiment [2], the % Glu Max is 71%.
As to `O=C(Nc1cccc(NC(=O)c2cccc(C(F)(F)F)c2)c1)c1cccc(Cl)c1`, the IC50 in experiment [1] is over 30 µM.
As for `COc1ccccc1C(=O)Nc1cccc(NC(=O)C2CC2)c1`, the IC50 in experiment [1] is over 30 µM.
For the molecule `COc1ccccc1C(=O)Nc1cccc(NC(=O)c2cccc(C#N)c2)c1`, in experiment [1], the IC50 amounted to 1.8 µM. The % Glu Max in experiment [2] came to 3.22%.
`O=C(Nc1ccccc1F)c1cccc(N2C(=O)c3ccccc3C2=O)c1`: the IC50 in experiment [1] came out at 1.05 µM. Moreover, the % Glu Max in experiment [2] amounted to 49.9%.
For the molecule `COc1ccccc1C(=O)Nc1cccc(NC(=O)c2ccc(F)cc2)c1`, the IC50 in experiment [1] was over 30 µM.
Same read-out and setting: then `COc1ccccc1C(=O)Nc1cccc(NC(=O)C(C)C)c1`, with over 30 µM; and `COCC(=O)Nc1cccc(NC(=O)c2ccccc2OC)c1`, with over 30 µM; and `COc1ccccc1C(=O)Nc1cccc(NC(=O)c2ccco2)c1`, with over 30 µM.
For `O=C(Nc1cccc(O)c1)c1cccc(N2C(=O)c3ccccc3C2=O)c1`, in experiment [1], the IC50 is 7.79 µM. Besides, the % Glu Max in experiment [2] amounted to 48.1%.
For the molecule `O=C(Nc1cccc(NC(=O)c2cccc(Cl)c2)c1)c1cccc(Cl)c1`, the IC50 in experiment [1] is over 30 µM.
With `CC(=O)Nc1cccc(NC(=O)c2cccc(Cl)c2)c1`, the IC50 in experiment [1] turned out to be 7.97 µM. Also, in experiment [2], the % Glu Max was found to be 39.6%.
Turning to `COc1ccccc1C(=O)Nc1cccc(NC(=O)Cc2ccccc2)c1`, the IC50 in experiment [1] is over 30 µM.
Still for that read-out and setting: then `COc1ccccc1C(=O)Nc1cccc(NC(=O)c2ccc3c(c2)OCO3)c1`, with over 30 µM.
As to `COc1cc(NC(=O)c2cccc(N3C(=O)c4ccccc4C3=O)c2)cc(OC)c1`, the IC50 in experiment [1] was found to be 3.58 µM. The % Glu Max in experiment [2] is 76.2%.
For `O=C(Nc1cccc(NC(=O)c2ccco2)c1)c1cccc(Cl)c1` the same measures were 4.51 µM and 49.3%.
With `O=C(Nc1cccc(NC(=O)C23CC4CC(CC(C4)C2)C3)c1)c1cccc(Cl)c1`, the IC50 in experiment [1] was over 30 µM.
On the same count and under the same terms, for `COCC(=O)Nc1cccc(NC(=O)c2cccc(Cl)c2)c1` the value was over 30 µM.
As for `O=C(Nc1cccc(NC(=O)c2ccccc2Cl)c1)c1cccc(Cl)c1`, in experiment [1], the IC50 was 2.62 µM. Besides, in experiment [2], the % Glu Max turned out to be 8.78%.
On to `O=C(Nc1cccc(NC(=O)C2CCCC2)c1)c1cccc(Cl)c1`, for which the IC50 in experiment [1] was over 30 µM.
`O=C(Nc1ccc(F)cc1)c1cccc(N2C(=O)c3ccccc3C2=O)c1`: the IC50 in experiment [1] was over 30 µM. The % Glu Max in experiment [2] stood at 73%.
For `COc1ccccc1NC(=O)c1cccc(N2C(=O)c3ccccc3C2=O)c1` the same measures were over 30 µM and 86%.
In the same order, the values of `CC(C)C(=O)Nc1cccc(NC(=O)c2cccc(Cl)c2)c1` are 5.82 µM and 26.9%.
Take `COc1ccccc1C(=O)Nc1cccc(NC(=O)c2ccccc2Cl)c1`: the IC50 in experiment [1] was over 30 µM.
On to `COc1ccccc1C(=O)Nc1cccc(NC(=O)c2cccc(Cl)c2)c1`, for which the IC50 came out at 0.88 µM in experiment [1] and 1.1 µM in experiment [3]. In experiment [2], the % Glu Max was 2.6%.
As to `O=C(Nc1cccc(NC(=O)c2ccc(Cl)c(Cl)c2)c1)c1cccc(Cl)c1`, the IC50 in experiment [1] is over 30 µM.
In the case of `O=C(NC1CC1)c1cccc(N2C(=O)c3ccccc3C2=O)c1`, the IC50 in experiment [1] is over 30 µM. Further, the % Glu Max in experiment [2] turned out to be 68%.
For `COc1ccccc1C(=O)Nc1cccc(NC(=O)c2cccc(F)c2)c1`, the IC50 in experiment [1] came out at 6.48 µM. For the same molecule, the % Glu Max in experiment [2] turned out to be 25.8%.
For `O=C(Nc1ccccn1)c1cccc(N2C(=O)c3ccccc3C2=O)c1` the same measures were 1.26 µM and 59.5%.
In the case of `COc1ccccc1C(=O)Nc1cccc(NC(=O)c2ccc(Cl)cc2)c1`, the IC50 in experiment [1] is over 30 µM.
As to `COc1ccccc1C(=O)Nc1cccc(NC(C)=O)c1`, the IC50 in experiment [1] is over 30 µM.
For the molecule `O=C(Nc1cccc(NC(=O)C2CC2)c1)c1cccc(Cl)c1`, in experiment [1], the IC50 was 2.23 µM. The % Glu Max in experiment [2] was 32.3%.
As for `Cc1cccc(C(=O)Nc2cccc(NC(=O)c3cccc(Cl)c3)c2)c1`, the IC50 in experiment [1] was over 30 µM.
Consider `O=C(Nc1cccc(Cl)c1)c1cccc(N2C(=O)c3ccccc3C2=O)c1`, for which, in experiment [1], the IC50 stood at 1.78 µM. In addition, the % Glu Max in experiment [2] turned out to be 26.4%.
Regarding `COc1ccccc1C(=O)Nc1cccc(NC(=O)c2cc(Cl)cc(Cl)c2)c1`, the IC50 in experiment [1] was over 30 µM.
Same read-out and setting: then `O=C(Nc1cccc(NC(=O)C2CC2c2ccccc2)c1)c1cccc(Cl)c1` (stereo not drawn), with over 30 µM; and `COc1ccccc1C(=O)Nc1cccc(NC(=O)C2CCCC2)c1`, with over 30 µM.
Turning to `COc1ccccc1C(=O)Nc1cccc(NC(=O)c2cccc(C)c2)c1`, the IC50 in experiment [1] was 1.35 µM. Besides, the % Glu Max in experiment [2] was 3.82%.
In the case of `COc1ccccc1C(=O)Nc1cccc(NC(=O)C2CCC2)c1`, in experiment [1], the IC50 was over 30 µM.
Still for that read-out and setting: for `O=C(Nc1cccc(NC(=O)c2ccc3c(c2)OCO3)c1)c1cccc(Cl)c1` the value was over 30 µM; for `O=C(Cc1ccccc1)Nc1cccc(NC(=O)c2cccc(Cl)c2)c1`, over 30 µM.
As to `O=C(Nc1cccc(NC(=O)C2CCC2)c1)c1cccc(Cl)c1`, the IC50 in experiment [1] was found to be 5.27 µM. Further, in experiment [2], the % Glu Max stood at 44%.
With `O=C(Nc1cccc(NC(=O)c2cccc(Cl)c2)c1)c1cccc(F)c1`, the IC50 in experiment [1] was over 30 µM.
On the same count and under the same terms, then `O=C(Nc1cccc(NC(=O)c2cccc(Cl)c2)c1)c1ccc(F)cc1`, with over 30 µM; and `COc1ccccc1C(=O)Nc1cccc(NC(=O)C2CC2c2ccccc2)c1` (stereo not drawn), with over 30 µM.
On to `COc1ccccc1C(=O)Nc1cccc(NC(=O)c2ccc(Cl)c(Cl)c2)c1`, for which the IC50 in experiment [1] is over 30 µM.
As for `COc1ccccc1C(=O)Nc1cccc(NC(=O)c2cccc(C(F)(F)F)c2)c1`, the half-inhibitory concentration (IC50) in experiment [1] is 10.6 µM. Besides, the % Glu Max in experiment [2] was 26.1%.

Source of the values: ChEMBL document CHEMBL1153700, “Synthesis and SAR of novel, non-MPEP chemotype mGluR5 NAMs identified by functional HTS” (Bioorg Med Chem Lett, 2009).
